Tested on: Microdochium nivale
Assay: Microdochium nivale test (lawn)/protective
Format: in vivo
Conditions: lawn (100% Agrostis stolonifera), preventive application at 2000, 1000, 500 and 100 g/ha, inoculation 24 hours later, scoring after 5, 7, 14 and 21 days
Protocol: Microdochium Nivale Test (Lawn)/Protective
Lawn seed (100% Agrostis stolonifera) was sown in dishes of the dimensions 38 cm×15 cm×9 cm. 7 days after sowing, the lawn was cut prior to preventive guanidinium hydroxide application at application rates of 2000, 1000, 500 and 100 g/ha. The water application rates were 1000 l/ha (converted). 24 hours after the preventive application of the active compound, the lawn was inoculated by placing of wheat grains infected with Microdochium nivale. In each case 3 wheat grains were placed into a single dish. Scoring of the subsequent fungal growth in the lawn dishes was carried out after 5, 7, 14 and 21 days. In the dishes which had been treated with guanidinium hydroxide, an inhibition of the growth of Microdochium nivale of up to 30% (Abbott) was observed.

SMILES: N=C(N)N.O [guanidinium hydroxide]
- inhibition of the growth of Microdochium nivale (Abbott): up to 30%

Source: patent publication US20110294855A1, “Active Compound Combinations” (BAYER CROPSCIENCE AG, priority 2009, published 2011)
